This is an account of results in publication PMC3726930, “Synthesis and Biological Activity of N-Sulfonyltripeptides with C-Terminal Arginine as Potential Serine Proteases Inhibitors” (International Journal of Peptide Research and Therapeutics, 2012).

The term Ki denotes the dissociation constant of the complex between target and ligand, obtained from inhibition or displacement. For orientation: IC50 means the midpoint of a concentration-inhibition curve.

Experiment [1] concerns the target T1, urokinase (Homo sapiens, UniProt P00749). The experiment is described as follows: Amidolytic activity of urokinase, substrate S-2444. The following applies: Ki calculated from IC50 by Cheng-Prusoff; triplicate; n.i. = no effect at maximum concentration 20 mM; read-out: Ki ± SD Urokinase S-2444. In kind it is biochemical. As to the method:
Determination of amidolytic activity was performed as previously described (Okada et al. [1988]). The detailed description of the method is given below. The buffer and the enzyme solution included: • tris buffer—0.6 ml (pH 8.8),
enzyme: urokinase (50 U/ml),
synthetic substrate: S-2444 (0.1 ml, 3 mM); • (b) tris buffer—0.5 ml (pH 8.4),
(§1) Buffer and 0.1 ml of enzyme solution was added to 0.2 ml of examined compound dissolved in 0.15 M NaCl (1–17) (as control 0.15 M NaCl). The mixture was incubated for 3 min at 37 °C, then the synthetic substrate was added. After 20 min of incubation, the reaction was stopped by adding 0.1 ml of 50 % acetic acid, and the absorbance of the released p-nitroaniline was measured at 405 nm (Spekol 1300, AnalyticJena). Every value represents the average of the triplicate determination. IC50 value was considered as the concentration of the inhibitor, which decreased the absorbance at 405 nm by 50 %, compared with the absorbance measured under the same conditions without the inhibitor. Ki was calculated from IC50 based on Cheng–Prusoff equation (Cheng and Prusoff [1973]).

For experiment [2], the target named is T2, plasmin (Homo sapiens, UniProt P00747).
T2 construct: converts the pro-enzyme plasminogen into its active form plasmin; purchased Chromogenix (Milano, Italy)
T2 sequence (P00747 581-810 limits assumed): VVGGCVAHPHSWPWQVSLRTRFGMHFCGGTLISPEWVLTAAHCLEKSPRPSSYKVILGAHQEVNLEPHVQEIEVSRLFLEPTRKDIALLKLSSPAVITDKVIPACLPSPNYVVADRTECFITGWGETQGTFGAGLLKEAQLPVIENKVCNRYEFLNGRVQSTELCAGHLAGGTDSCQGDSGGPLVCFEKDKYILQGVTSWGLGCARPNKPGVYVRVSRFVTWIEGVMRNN
T2 sequence (P00747 97-580 partner limits assumed): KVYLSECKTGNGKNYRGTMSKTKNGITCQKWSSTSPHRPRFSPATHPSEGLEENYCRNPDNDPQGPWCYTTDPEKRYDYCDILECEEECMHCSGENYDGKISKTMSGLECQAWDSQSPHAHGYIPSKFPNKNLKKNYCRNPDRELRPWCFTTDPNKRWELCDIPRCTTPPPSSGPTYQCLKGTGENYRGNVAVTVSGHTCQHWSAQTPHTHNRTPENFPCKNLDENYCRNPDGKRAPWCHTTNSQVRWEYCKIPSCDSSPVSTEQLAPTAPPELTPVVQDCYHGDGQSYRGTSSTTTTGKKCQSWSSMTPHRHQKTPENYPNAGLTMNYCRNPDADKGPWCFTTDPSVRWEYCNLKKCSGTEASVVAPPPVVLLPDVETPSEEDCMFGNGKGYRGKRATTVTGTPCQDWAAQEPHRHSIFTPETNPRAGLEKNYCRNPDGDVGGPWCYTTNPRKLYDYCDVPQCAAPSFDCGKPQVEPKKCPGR
The experiment is described as follows: Amidolytic activity of plasmin, substrate S-2251. In kind it is biochemical. As to conditions: Ki calculated from IC50 by Cheng-Prusoff; triplicate; read-out: Ki ± SD Plasmin S-2251. On the procedure: (§2) Determination of amidolytic activity was performed as previously described (Okada et al. [1988]). The detailed description of the method is given below. The buffer and the enzyme solution included: • tris buffer—0.6 ml (pH 8.8), […]
as §1, with “synthetic substrate: S-2238 (0.2 ml, 0.75 mM); • (c) tris buffer—0.5 ml (pH 7.4), enzyme: plasmin (0.4 U/ml), synthetic substrate: S-2251 (0.2 ml, 3 mM); • (d) […] buffer—0.5 ml (pH 7.5), Buffer” for “Buffer”

The target of experiment [3] is thrombin (Bos taurus, UniProt P00735). The experiment is described as follows: Amidolytic activity of thrombin, substrate S-2238. In kind it is biochemical. As to conditions: Ki calculated from IC50 by Cheng-Prusoff, n.i. = no effect at maximum concentration 20 mM, read-out: Ki ± SD Thrombin. On the procedure: as §2
as §1, with “synthetic substrate: S-2444 (0.1 ml, 3 mM); • (b) tris buffer—0.5 ml (pH 8.4), enzyme: thrombin (1 U/ml), synthetic substrate: S-2238 (0.2 ml, 0.75 mM); • (c) tris buffer—0.5 ml (pH 7.4), Buffer” for “Buffer”

Experiment [4] concerns MDA-MB-231 cells. The following applies: 24 h.
The subject of experiment [5] is DLD cells. As to conditions: 24 h.
The target of experiment [6] is T1, urokinase. Kind of experiment: Urokinase inhibition, literature or earlier data. It counts as biochemical. The following applies: author's unpublished data, corresponding to earlier IC50 values.
Experiment [7] addresses T1, urokinase. As to conditions: cited from earlier work.
Where [8] appears, read: ref Markowska et al. [2008], read-out: IC50 urokinase.

Read-outs that look alike come from different tables or passages of the source. Where a SMILES comes first, the peptide text is derived from it. Where no end group is shown, it is not given here. [ ]: non-standard residue; d: D form. The star is where a group is joined. Nva = CCC[C@H](N)C(=O)O; Ms = CS(=O)(=O)*; CH2Cl = ClC*

Take `C[C@H](NC(=O)[C@@H](CO)NS(=O)(=O)Cc1ccccc1)C(=O)N[C@@H](CCCNC(=N)N)C(=O)NCCCCCN` [Compound 1, PhCH2SO2-D-Ser-Ala-Arg-NH-(CH2)5-NH2]: the Ki in experiment [1] was more than 20000 µM; in experiment [2], 2 ± 0.16 µM; in experiment [3], more than 20000 µM. Besides, the IC50 amounted to 480 µM in experiment [4] and 460 µM in experiment [5].
With `CC(C)c1cc(C(C)C)c(S(=O)(=O)N[C@H](CO)C(=O)N[C@@H](C)C(=O)N[C@@H](CCCNC(=N)N)C(=O)NCCCCCN)c(C(C)C)c1` [Compound 2, 2,4,6-TriiPrPhSO2-D-Ser-Ala-Arg-NH-(CH2)5-NH2], the values for the Ki in experiment [1], in experiment [2] and in experiment [3] were more than 20000 µM, 90.9 ± 7.27 µM and more than 20000 µM, respectively. For the same molecule, the values for the IC50 in experiment [4] and in experiment [5] were 480 µM and 390 µM, respectively.
Take `C[C@H](NC(=O)[C@@H](CO)NS(C)(=O)=O)C(=O)N[C@@H](CCCNC(=N)N)C(=O)NCCCCCN` [Compound 3, CH3PhSO2-D-Ser-Ala-Arg-NH-(CH2)5-NH2]: the IC50 in experiment [4] was 570 µM; in experiment [5], 390 µM.
Turning to `N=C(N)NCCC[C@H](NC(=O)CNC(=O)[C@@H](CO)NS(=O)(=O)Cc1ccccc1)C(=O)NCCCCCN` [Compound 4, PhCH2SO2-D-Ser-Gly-Arg-NH-(CH2)5-NH2], the Ki in experiment [1] was more than 20000 µM; in experiment [2] it was 58.2 ± 4.65 µM; in experiment [3], more than 20000 µM. Besides, the results for the IC50 in experiment [4] and in experiment [5] were 580 µM and 320 µM, respectively.
In the case of `CC(C)c1cc(C(C)C)c(S(=O)(=O)N[C@H](CO)C(=O)NCC(=O)N[C@@H](CCCNC(=N)N)C(=O)NCCCCCN)c(C(C)C)c1` [Compound 5, 2,4,6-TriiPrPhSO2-D-Ser-Gly-Arg-NH-(CH2)5-NH2], the Ki in experiment [1] was 44.6 ± 3.57 µM; in experiment [2], 56.4 ± 4.51 µM; in experiment [3], more than 20000 µM. In addition, the IC50 amounted to 510 µM in experiment [4] and 150 µM in experiment [5].
`CS(=O)(=O)N[C@H](CO)C(=O)NCC(=O)N[C@@H](CCCNC(=N)N)C(=O)NCCCCCN` [Compound 6, CH3PhSO2-D-Ser-Gly-Arg-NH-(CH2)5-NH2]: the IC50 was 450 µM in experiment [4] and 260 µM in experiment [5].
For `CCC[C@H](NC(=O)[C@@H](CO)NS(=O)(=O)Cc1ccccc1)C(=O)N[C@@H](CCCNC(=N)N)C(=O)NCCCCCN` [Compound 7, PhCH2SO2-D-Ser-NVa-Arg-NH-(CH2)5-NH2], the Ki in experiment [1] is more than 20000 µM; in experiment [2], 112 ± 8.95 µM; in experiment [3], more than 20000 µM. The results for the IC50 in experiment [4] and in experiment [5] were 680 µM and 340 µM, respectively.
As to `CCC[C@H](NC(=O)[C@@H](CO)NS(=O)(=O)c1c(C(C)C)cc(C(C)C)cc1C(C)C)C(=O)N[C@@H](CCCNC(=N)N)C(=O)NCCCCCN` [Compound 8, 2,4,6-TriiPrPhSO2-D-Ser-NVa-Arg-NH-(CH2)5-NH2], the figures for the Ki in experiment [1], in experiment [2] and in experiment [3] were more than 20000 µM, 52.7 ± 4.22 µM and more than 20000 µM, respectively. The figures for the IC50 in experiment [4] and in experiment [5] were 660 µM and 330 µM, respectively.
As to `CCC[C@H](NC(=O)[C@@H](CO)NS(C)(=O)=O)C(=O)N[C@@H](CCCNC(=N)N)C(=O)NCCCCCN` [Compound 9, CH3PhSO2-D-Ser-NVa-Arg-NH-(CH2)5-NH2], the 50% inhibitory concentration (IC50) in experiment [4] came to 620 µM; in experiment [5], 50 µM.
On to `N=C(N)NCCC[C@H](NC(=O)CNC(=O)[C@@H](CO)NS(=O)(=O)Cc1ccccc1)C(=O)O` [Compound 10, PhCH2SO2-D-Ser-Gly-Arg-OH], for which the values for the Ki in experiment [1], in experiment [2] and in experiment [3] were 5.4 ± 0.43 µM, 103 ± 8.22 µM and 0.97 ± 0.08 µM, respectively. Moreover, the figures for the IC50 in experiment [4] and in experiment [5] were 640 µM and 5 µM, respectively.
The like results for `CC(C)c1cc(C(C)C)c(S(=O)(=O)N[C@H](CO)C(=O)NCC(=O)N[C@@H](CCCNC(=N)N)C(=O)O)c(C(C)C)c1` [Compound 11, 2,4,6-TriiPrPhSO2-D-Ser-Gly-Arg-OH] were, in that order, 15.8 ± 1.27 µM, 89.1 ± 7.13 µM, more than 20000 µM, 570 µM and 110 µM.
As to `CCC[C@H](NC(=O)[C@@H](CO)NS(=O)(=O)Cc1ccccc1)C(=O)N[C@@H](CCCNC(=N)N)C(=O)O` [Compound 13, PhCH2SO2-D-Ser-NVa-Arg-OH], the Ki was more than 20000 µM in experiment [1], 13.6 ± 1.09 µM in experiment [2] and 0.82 ± 0.06 µM in experiment [3]. The IC50 in experiment [4] worked out at 650 µM; in experiment [5], 180 µM.
For `CCC[C@H](NC(=O)[C@@H](CO)NS(=O)(=O)c1c(C(C)C)cc(C(C)C)cc1C(C)C)C(=O)N[C@@H](CCCNC(=N)N)C(=O)O` [Compound 14, 2,4,6-TriiPrPhSO2-D-Ser-NVa-Arg-OH], the IC50 in experiment [4] came to 590 µM; in experiment [5], 220 µM.
In the case of `CCC[C@H](NC(=O)[C@@H](CO)NS(C)(=O)=O)C(=O)N[C@@H](CCCNC(=N)N)C(=O)O` [Compound 15, CH3PhSO2-D-Ser-NVa-Arg-OH] (Ms-[dS]-[Nva]-Arg-OH; N-terminus and C-terminus assumed), the Ki in experiment [1] is more than 20000 µM; in experiment [2], 167 ± 13.4 µM; in experiment [3] it was more than 20000 µM. Further, the IC50 in experiment [4] turned out to be 650 µM; in experiment [5] it was 270 µM.
With `CCC[C@H](NC(=O)[C@H](N)CO)C(=O)N[C@@H](CCCNC(=N)N)C(=O)NCCCCCN` [Compound 16, H-D-Ser-NVa-Arg-NH-(CH2)5-NH2], the Ki in experiment [1] is more than 20000 µM; in experiment [2], 137 ± 11 µM; in experiment [3] it was more than 20000 µM. The IC50 in experiment [4] is 490 µM; in experiment [5] it was 260 µM.
Regarding `N=C(N)NCCC[C@H](NC(=O)CNC(=O)[C@H](N)CO)C(=O)NCCCCCN` [Compound 17, H-D-Ser-Gly-Arg-NH-(CH2)5-NH2], the Ki is more than 20000 µM in experiment [1], 139 ± 11.1 µM in experiment [2] and more than 20000 µM in experiment [3]. In addition, the IC50 was 510 µM in experiment [4] and 250 µM in experiment [5].
`C[C@H](NC(=O)[C@H](N)CO)C(=O)N[C@@H](CCCNC(=N)N)C(=O)O` [H-D-Ser-Ala-Arg-OH] (H-[dS]-Ala-Arg-OH) showed a Ki in experiment [6] of 180 µM. In addition, the IC50 in experiment [7] (setting [8]) was 2000 µM.
`N=C(N)NCCC[C@H](NC(=O)CNC(=O)[C@H](N)CO)C(=O)O` [H-D-Ser-Gly-Arg-OH] (H-[dS]-Gly-Arg-OH) had a Ki in experiment [6] of 90 µM. For the same molecule, the IC50 in experiment [7] (setting [8]) is 1000 µM.
Turning to Glu-Gly-Arg-CH2Cl, the inhibition constant Ki in experiment [7] (ref Lijnen et al. [1987]) was 5 µM.
H-D-Ser-Ala-Arg-NH-(CH2)5-NH2: in experiment [7] (ref Markowska et al. [2010]), the Ki is 6.3 µM.
On to H-D-Ser-NVa-Arg-OH, for which the Ki in experiment [7] (ref Markowska et al. [2011]) is 0.85 µM.
Take phenethylsulfonyl-D-Ser-Ala-Arg-H: in experiment [7] (ref Tamura et al. [2000], read-out: IC50 uPA), the IC50 is 0.0031 µM.
In the case of α-tolyl-SO2-D-Ser-Ala-Arg-OH, the Ki in experiment [7] (ref Markowska et al. [2010]) was 24 µM.
